Like-named read-outs stand apart in the source and are kept apart here.
Legend:
dCK-C3S-S74E [1] = assay: Enzymatic assay (PK/LDH coupled), dC phosphorylation by dCK in the presence of ATP; type: biochemical, human; settings: presence of ATP, read-out: ENZYMATIC ASSAY IC50
Experimental: (§1) For enzymatic assays, cells were re-suspended in 20 mM TRIS, pH 8 500 mM NaCl, 0.1% BRIJ-35 and 5% glycerol buffer and one EDTA free anti-protease tablet was added (Roche). After sonication and centrifugation (30,000 × g), the supernatant was loaded on a 5 ml HisTrap FF column (GE healthcare) pre-equilibrated with 20 mM TRIS, pH 8, 500 mM NaCl, 0.01% BRIJ-35 and 5% glycerol buffer. The protein was then eluted by the same buffer containing 250 mM imidazole after a wash containing 25 mM imidazole. The eluted fraction was applied on a HiPrep 26/10 desalting column (GE healthcare) pre-equilibrated with 20 mM TRIS, pH 8, 500 mM NaCl, 5% glycerol and 0.01% BRIJ-35 buffer. Finally, protein in a 20% glycerol buffer was flash frozen in liquid nitrogen and stored at −80 °C.
(§2) Kinetic analyses were performed using a spectrophotometric continuous enzymatic-coupled assay using pyruvate kinase (PK) and lactate dehydrogenase (LDH). Analysis of the effect of compounds on dCK-C3S-S74E activity was performed using dC as substrate and UTP/ATP as phosphate donors. UTP is the physiological dCK-phosphate donor[46] and it was used to determine activation versus inhibition behavior. ATP was used to calculate IC50 values, as it allows the analysis of a dose response curve. The PK/LDH coupled assay is based on the conversion of phosphoenolpyruvate (PEP) and UDP/ADP to pyruvate and UTP/ATP by PK and the subsequent conversion of pyruvate to lactate by LDH. The latter step requires NADH, which is oxidized to NAD^+. NADH is fluorescent (excitation at 337 nm and emission at 460 nm), but not NAD^+. Thus, the measurement of fluorescent decrease at 460 nm is a measure of kinase activity. dCK experiments were performed in a buffer containing 50 mM HEPES, pH 7.5, 5 mM MgCl2, 1 mM DTT, and 100 mM KCl. Buffer was supplemented with PK (0.01 U/µl), LDH (0.02 U/µl), PEP (1 mM), NADH (300 µM) and compounds at varying concentrations. For UTP assays, protein concentration was 2 μM, substrate 200 µM (dC), and UTP 1 mM. For ATP assays, protein concentration was 100 nM (and 50 nM when indicated), substrate 100 µM (dC), and ATP 1 mM. All measurements were performed on a microplate reader Pherastar FS (BMG Labtech). All assays were performed in triplicate and each experiment was performed at least twice. The data are presented as mean ± SD. The results were plotted as kinetics and the velocity was determined for each condition as the slope of the linear range of the curve. For each compound concentration, the velocity of the reaction (according to V = d[P]/dt) was normalized with respect to the drug free control and velocity ratios were compared. IC50 values corresponding to enzymatic inhibition in ATP were calculated by nonlinear regression curves using GraphPad Prism software 9.4.0.

CCRF-CEM cell line = assay: dCK cellular assay: CCRF-CEM proliferation in the presence of dT and dC; type: cell-based, human; settings: Homo sapiens
Experimental: The dCK cellular assay was set up to assess the ability to inhibit dCK activity in a cellular model. The model was developed with a T-cell acute lymphoblastic leukemia cell line (CCRF-CEM), because of its high dependence on the SP, thus on dCK activity. Cellular assays were performed to assess the inhibition of cell proliferation under two conditions: (i) in the presence of the compound alone to determine the nonspecific effect on cells, independent of dCK (nonspecific toxicity) and (ii) in the presence of an inhibitor of the DNP to determine the ability of compounds to inhibit dCK and decrease tumor proliferation (activity on dCK). The inhibitor of the DNP chosen for the experiments was thymidine (dT), a physiological inhibitor of ribonucleotide reductase which arrests cell proliferation in phase S. The dTTP produced via thymidine kinase from dT acts as a RNR inhibitor by an allosteric regulation of the R1 subunit. The addition of the nucleoside deoxycytidine (dC) in the medium allows the rescue of cell proliferation by passing only through the salvage pathway, mediated by dCK. dC needs to be added exogenously to mimic physiological concentrations because it is not present in the cell culture medium, on the contrary to mouse model, in which it is naturally present in the serum. Therefore, cell proliferation under these conditions (+dT +dC) is dCK dependent and it is possible to determine the IC50 of dCK inhibitors on the inhibition of cell proliferation. Results are expressed as % cell proliferation relative to the control with DMSO.
The amount of reduced dye formed by metabolically active cells was quantified by its fluorescence measured at 560 nm (excitation) and 590 nm (emission) in a microplate reader (CLARIOstar, BMG Labtech). A blank well without cells was used as a background control. Each experiment was performed at least three times (with technical triplicates) and data are presented as the mean ± SD.

dCK-C3S-S74E [2] = assay: Enzymatic assay (PK/LDH coupled), dC phosphorylation by dCK in the presence of UTP; type: biochemical, human; settings: presence of UTP
Experimental: as §1
as §2, with “Analysis of the effect of compounds on dCK-C3S-S74E activity was performed using dC as substrate and UTP/ATP as phosphate donors.” left out

dCK-C3S-S74E [3] = assay: Thermal shift assay (TSA); settings: for ΔTm (º) (TSA): Figure 2a, mean; for THERMAL SHIFT ASSAY +Tm (°): mean ± SD
Source text: BL21 pRIL Escherichia coli cells were transformed with dCK-plasmids (dCK-C4S-S74E (for crystallization assays) and dCK-C3S-S74E (for TSA, enzymatic and ITC assays)). […] Protein dCK-C3S-S74E used for other assays contained only three mutated cysteines. The S74E mutation mimics the phosphorylated state of this serine, which favors the open conformation of the enzyme, making it competent for nucleoside binding[45] to evaluate the binding affinity with compounds.
For binding assays (TSA, ITC and crystallography) cells were re-suspended in 50 mM TRIS, pH 8, 500 mM NaCl, 30 mM imidazole and 10% glycerol buffer and one EDTA free anti-protease tablet was added (Roche). After sonication and centrifugation (30,000 × g), the supernatant was loaded on a 5 ml HisTrap FF column (GE healthcare) pre-equilibrated with resuspension buffer. Protein was then eluted by resuspension buffer containing 500 mM imidazole. Protein eluted fractions were mixed and concentrated. Protein was further purified by size exclusion chromatography (superdex 200 16/600, GE healthcare) in 20 mM HEPES, pH 7.5, and 200 mM NaCl before concentration to 30 mg/ml and storage at −80 °C.
Thermal shift assay (TSA) experiments were performed in 384-well PCR white plates in the assay buffer containing 20 mM HEPES, pH 7.5 and 200 mM NaCl. […] Plates were centrifuged at 200 × g for 2 min at 4 °C. […] Raw fluorescence data were treated, and the melting temperatures (Tm) were calculated using CFX Manager 3.1 software (Bio-Rad). ΔTm represents the difference in Tm between the protein in the presence of compound and the protein alone (both at 2% DMSO). Each experiment was performed at least twice (with technical triplicates) and data are presented as the mean ± SD.

[4] = Figure 2a, CCRF-CEM cell line, mean, read-out: IC50 (nM) (Cell Prolif)
[5] = read-out: dCK CELLULAR ASSAY IC50 (nM), CCRF-CEM, 200 µM dT and 1 µM dC, read-out: dCK […] ASSAY IC50

Chain of dCK-C3S-S74E (P27707 whole entry S74E, form open): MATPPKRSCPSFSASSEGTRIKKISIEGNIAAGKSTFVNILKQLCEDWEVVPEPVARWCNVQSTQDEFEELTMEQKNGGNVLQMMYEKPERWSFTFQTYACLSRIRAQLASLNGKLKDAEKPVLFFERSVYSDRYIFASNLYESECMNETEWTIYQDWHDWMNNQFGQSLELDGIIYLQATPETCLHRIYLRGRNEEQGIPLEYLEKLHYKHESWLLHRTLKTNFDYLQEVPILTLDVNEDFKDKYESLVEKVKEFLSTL

| Compound | IC50 (dCK-C3S-S74E [1]; [dCK] = 50 nM (footnote A)) | IC50 (CCRF-CEM cell line; [4]) | ENZYMATIC ASSAY (Activation/Inhibition) (dCK-C3S-S74E [2]) | ΔTm (º) (TSA) (dCK-C3S-S74E [3]) | THERMAL SHIFT ASSAY +Tm (°) (dCK-C3S-S74E [3]) | IC50 (dCK-C3S-S74E [1]; [dCK] = 100 nM) | IC50 (CCRF-CEM cell line; [5]) |
| --- | --- | --- | --- | --- | --- | --- | --- |
| Cc1ccc(-c2ccc(CCN3CCN(C)CC3)cc2)cc1N(CCCN)c1nc(-c2nc(N)cc(N)n2)cs1 [OR0611] | 498 ± 119 nM | 11800 nM | A/I | 14.67 º | 14.7 ± 0.5 ° | – | – |
| CN1CCN(Cc2ccc(C(=O)Nc3ccc4c(c3)N(c3nc(-c5nccc(N)n5)cs3)CCCC4)cc2)CC1 [OR0289] | – | – | A/I | – | 15.9 ± 0.5 ° | 3400 ± 564 nM | 3920 ± 461 nM |
| CCCN(c1nc(-c2nccc(N)n2)cs1)c1cc(-c2ccc(OCCN3CCN(C)CC3)cc2)ccc1C [OR0596] | – | – | I | – | 18.9 ± 0.1 ° | 286 ± 145 nM | 307 ± 50 nM |
| CCCN(c1nc(-c2nccc(N)n2)cs1)c1cc(-c2ccc(CCN3CCN(C)CC3)nc2)ccc1C [OR0599] | – | – | I | – | 17.1 ± 0.2 ° | 211 ± 52 nM | 136 ± 53 nM |
| Cc1ccc(-c2ccc(O)cc2)cc1Nc1nc(-c2nccc(N)n2)cs1 [OR0320] | – | – | A/I | – | 15.0 ± 0.2 ° | 1760 ± 385 nM | 6770 ± 2810 nM |
| Cc1ccc(-c2ccc(S(=O)(=O)N3CCN(C)CC3)cc2)cc1Nc1nc(-c2nc(N)cc(N)n2)cs1 [OR0614] | 233 ± 83 nM | 10000 nM | A/I | 18.1 º | 18.1 ± 0.8 ° | – | – |
| CCCN(c1nc(-c2nccc(N)n2)cs1)c1cc(NC(=O)c2ccc(CN3CCN(C)CC3)cc2)ccc1C [OR0105] | – | – | I | – | 14.5 ± 0.2 ° | 2140 ± 49 nM | 1620 ± 254 nM |

Continued, values first:

| IC50 (dCK-C3S-S74E [1]; [dCK] = 50 nM (footnote A)) | IC50 (CCRF-CEM cell line; [4]) | ENZYMATIC ASSAY (Activation/Inhibition) (dCK-C3S-S74E [2]) | ΔTm (º) (TSA) (dCK-C3S-S74E [3]) | THERMAL SHIFT ASSAY +Tm (°) (dCK-C3S-S74E [3]) | IC50 (dCK-C3S-S74E [1]; [dCK] = 100 nM) | IC50 (CCRF-CEM cell line; [5]) | Compound |
| --- | --- | --- | --- | --- | --- | --- | --- |
| 106 ± 23 nM | 40 nM | I | 21.03 º | 21.0 ± 0.5 ° | – | – | Cc1ccc(-c2ccc(OCCN3CCN(C)CC3)nc2)cc1N(CC(C)C)c1nc(-c2nc(N)cc(N)n2)cs1 [OR0608] |
| 139 ± 12 nM | 80 nM | I | 18.79 º | 18.8 ± 0.6 ° | – | – | CCCN(c1nc(-c2nc(N)cc(N)n2)cs1)c1cc(-c2ccc(S(=O)(=O)N(C)C)cc2)ccc1C [OR0618] |
| 88 ± 68 nM | 411 nM | I | 17.5 º | 17.5 ± 0.7 ° | – | – | CCCN(c1nc(-c2nc(N)cc(N)n2)cs1)c1cc(-c2ccc(S(N)(=O)=O)cc2)ccc1C [OR0615] |
| 181 ± 15 nM | 78 nM | I | 18.29 º | 18.3 ± 1.1 ° | – | – | CCCN(c1nc(-c2nc(N)cc(N)n2)cs1)c1cc(-c2ccc(S(=O)(=O)N3CCOCC3)cc2)ccc1C [OR0617] |
| – | – | A/I | – | 13.3 ± 0.2 ° | 2270 ± 293 nM | 8290 ± 2710 nM | COc1cc(-c2ccc(C)c(Nc3nc(-c4nccc(N)n4)cs3)c2)ccc1O [OR0321] |
| – | – | A/I | – | 12.6 ± 0.1 ° | 6380 ± 2080 nM | > 40000 nM | Cc1ccc(NC(=O)c2ccc(CN3CC4(CN(C)C4)C3)cc2)cc1Nc1nc(-c2nccc(N)n2)cs1 [OR0156] |
| 195 ± 16 nM | 1000 nM | I | 16.58 º | 16.6 ± 0.8 ° | – | – | CCCN(c1nc(-c2nc(N)cc(N)n2)cs1)c1cc(-c2ccc(C(=O)N3CCN(C)CC3)nc2)ccc1C [OR0612] |
| – | – | A/I | – | 13.5 ± 0.0 ° | 3770 ± 2190 nM | 14200 ± 1160 nM | Cc1ccc(NC(=O)c2ccc(CN3CCN(C)CC3)s2)cc1Nc1nc(-c2nccc(N)n2)cs1 [OR0241] |
| – | – | A/I | – | 14.8 ± 0.4 ° | 3460 ± 349 nM | 14600 ± 1190 nM | Cc1ccc(NC(=O)c2ccc(CCN3CCN(C)CC3)cc2)cc1Nc1nc(-c2nccc(N)n2)cs1 [OR0146] |

— publication PMC10227015, “From a drug repositioning to a structure-based drug design approach to tackle acute lymphoblastic leukemia” (Nature Communications, 2023)
